Measurements published in patent EP0908457B1, “3-(1,2-benzisothiazol- and isoxazol-5-Y1)-2,4(1H,3H)-pyrimidinedione or thione and 3-(1,2-benzisothiazol- and isoxazol-5-y1)-4(3H)-pyrimidinone or thione herbicidal agents” (BASF AKTIENGESELLSCHAFT, priority 1997, dated 1999).

How the values were obtained:
[1] = test system: Cyperus serotinus, Rottb.; experiment: Preemergence weed control under flooded paddy conditions, CYPSE (Flatsedge); assay type: in vivo; for herbicidal effect rating, CYPSE: meaning of each grade not given here
[2] = test system: Cyperus iria; experiment: Preemergence weed control under flooded paddy conditions, CYPIR (Rice Flatsedge); assay type: in vivo; conditions: flooded paddy; for herbicidal effect rating, CYPIR: meaning of each grade not given here
[3] = test system: Monochoria vaginalis, Presl.; experiment: Preemergence weed control under flooded paddy conditions, MOOVA (Monochoria); assay type: in vivo; conditions: flooded paddy; for herbicidal effect rating, MOOVA: meaning of each grade not given here
[4] = test system: Sagittaria pygmaea, L.; experiment: Preemergence weed control under flooded paddy conditions, SAGPY (Arrowhead (Pygmaea)); assay type: in vivo; conditions: flooded paddy; for herbicidal effect rating, SAGPY: meaning of each grade not given here
[5] = test system: Echinochloa oryzoides (Ard.) Fritsch.; experiment: Preemergence weed control under flooded paddy conditions, ECHORC (Watergrass (Calif.)); assay type: in vivo; conditions: flooded paddy; for herbicidal effect rating, ECHORC: meaning of each grade not given here
[6] = test system: Oryza sativa, (L.) Tebonnet; experiment: Rice tolerance to post-transplant applications under flooded paddy conditions (Example 187), ORYSAT (Rice, Tebonnet); for herbicidal effect rating ORYSAT: meaning of each grade not given here
[7] = Rate 0.0320 kg/ha, preemergence, rated three to four weeks after treatment
[8] = Rate 0.0620 kg/ha, preemergence, rated three to four weeks after treatment
[9] = Rate 0.1250 kg/ha, preemergence, rated three to four weeks after treatment
[10] = Rate 0.2500 kg/ha, preemergence, rated three to four weeks after treatment
[11] = 0.0313 kg/ha, preemergence weeds, rated three to four weeks after treatment
[12] = 0.0625 kg/ha, preemergence weeds, rated three to four weeks after treatment
[13] = 0.1250 kg/ha, preemergence weeds, rated three to four weeks after treatment
[14] = 0.2500 kg/ha, preemergence weeds, rated three to four weeks after treatment
[15] = 0.0313 kg/ha, rated three to four weeks after treatment
[16] = 0.0625 kg/ha, rated three to four weeks after treatment
[17] = 0.1250 kg/ha, rated three to four weeks after treatment
[18] = 0.2500 kg/ha, rated three to four weeks after treatment
[19] = 0.0313 kg/ha, preemergence, rated three to four weeks after treatment
[20] = 0.0625 kg/ha, preemergence, rated three to four weeks after treatment
[21] = 0.1250 kg/ha, preemergence, rated three to four weeks after treatment
[22] = 0.2500 kg/ha, preemergence, rated three to four weeks after treatment
[23] = 0.0320 kg/ha, preemergence, rated three to four weeks after treatment
[24] = 0.0620 kg/ha, preemergence, rated three to four weeks after treatment
[25] = Rate 0.0320 kg/ha, preemergence, rated 3-4 weeks after treatment
[26] = Rate 0.0620 kg/ha, preemergence, rated 3-4 weeks after treatment
[27] = Rate 0.1250 kg/ha, preemergence, rated 3-4 weeks after treatment
[28] = Rate 0.2500 kg/ha, preemergence, rated 3-4 weeks after treatment

CCSCCOC(=O)c1nsc2ccc(-n3c(=O)cc(C(F)(F)F)n(C)c3=O)cc12 [Example 385, 1,2-Benzisothiazole-3-carboxylic acid, 5-[3,6-dihydro-3-methyl-2,6-dioxo-4-(trifluoromethyl)-1(2H)-pyrimidinyl]-, 2-(ethylthio)ethyl ester]
herbicidal effect rating, CYPSE [1, 7]: 6.0 | herbicidal effect rating, CYPSE [1, 8]: 6.0 | herbicidal effect rating, CYPSE [1, 9]: 7.0 | herbicidal effect rating, CYPSE [1, 10]: 7.0 | herbicidal effect rating, CYPIR [2, 7]: 4.0 | herbicidal effect rating, CYPIR [2, 8]: 6.0 | herbicidal effect rating, CYPIR [2, 9]: 6.0 | herbicidal effect rating, CYPIR [2, 10]: 9.0 | herbicidal effect rating, MOOVA [3, 7]: 9.0 | herbicidal effect rating, MOOVA [3, 8]: 9.0 | herbicidal effect rating, MOOVA [3, 9]: 9.0 | herbicidal effect rating, MOOVA [3, 10]: 9.0 | herbicidal effect rating, SAGPY [4, 7]: 0.0 | herbicidal effect rating, SAGPY [4, 8]: 0.0 | herbicidal effect rating, SAGPY [4, 9]: 9.0 | herbicidal effect rating, SAGPY [4, 10]: 9.0 | herbicidal effect rating, ECHORC [5, 7]: 0.0 | herbicidal effect rating, ECHORC [5, 8]: 3.0 | herbicidal effect rating, ECHORC [5, 9]: 3.0 | herbicidal effect rating, ECHORC [5, 10]: 6.0 | herbicidal effect rating ORYSAT ([6]; Rate 0.0320 kg/ha, rated three to four weeks after treatment): 3.0 | herbicidal effect rating ORYSAT ([6]; Rate 0.0620 kg/ha, rated three to four weeks after treatment): 5.0 | herbicidal effect rating ORYSAT ([6]; Rate 0.1250 kg/ha, rated three to four weeks after treatment): 7.0 | herbicidal effect rating ORYSAT ([6]; Rate 0.2500 kg/ha, rated three to four weeks after treatment): 7.0

COCCOC(=O)COc1ccc(C)cc1-c1nsc2ccc(-n3c(=O)cc(C(F)(F)F)n(C)c3=O)cc12 [Example 191, 2-Methoxyethyl {{2-{5-[3,6-dihydro-3-methyl-2,6-dioxo-4-(trifluoromethyl)-1(2H)-pyrimidinyl]-1,2-benzisothiazol-3-yl}-p-tolyl}oxy}acetate]
herbicidal effect rating, CYPSE [1, 11]: 0.0 | herbicidal effect rating, CYPSE [1, 12]: 0.0 | herbicidal effect rating, CYPSE [1, 13]: 0.0 | herbicidal effect rating, CYPIR [2, 11]: 0.0 | herbicidal effect rating, CYPIR [2, 12]: 0.0 | herbicidal effect rating, CYPIR [2, 13]: 2.0 | herbicidal effect rating, CYPIR [2, 14]: 4.0 | herbicidal effect rating, MOOVA [3, 11]: 9.0 | herbicidal effect rating, MOOVA [3, 12]: 9.0 | herbicidal effect rating, MOOVA [3, 13]: 9.0 | herbicidal effect rating, MOOVA [3, 14]: 9.0 | herbicidal effect rating, SAGPY [4, 11]: 0.0 | herbicidal effect rating, SAGPY [4, 12]: 0.0 | herbicidal effect rating, SAGPY [4, 13]: 0.0 | herbicidal effect rating, SAGPY [4, 14]: 0.0 | herbicidal effect rating, ECHORC [5, 11]: 0.0 | herbicidal effect rating, ECHORC [5, 12]: 2.0 | herbicidal effect rating, ECHORC [5, 13]: 4.0 | herbicidal effect rating, ECHORC [5, 14]: 7.0 | herbicidal effect rating, ORYSAT (rice tolerance) [6, 15]: 1.0 | herbicidal effect rating, ORYSAT (rice tolerance) [6, 16]: 2.0 | herbicidal effect rating, ORYSAT (rice tolerance) [6, 17]: 3.0 | herbicidal effect rating, ORYSAT (rice tolerance) [6, 18]: 6.0

CCc1nsc2ccc(-n3c(=O)cc(C(F)(F)F)n(C)c3=O)cc12 [Example 119, 3-(3-Ethyl-1,2-benzisothiazol-5-yl)-1-methyl-6-(trifluoromethyl)-2,4(1H,3H)-pyrimidinedione]
herbicidal effect rating, CYPSE [1, 11]: 2.0 | herbicidal effect rating, CYPSE [1, 12]: 4.0 | herbicidal effect rating, CYPSE [1, 13]: 8.0 | herbicidal effect rating, CYPSE [1, 14]: 9.0 | herbicidal effect rating, CYPIR [2, 11]: 9.0 | herbicidal effect rating, CYPIR [2, 12]: 9.0 | herbicidal effect rating, CYPIR [2, 13]: 9.0 | herbicidal effect rating, CYPIR [2, 14]: 9.0 | herbicidal effect rating, MOOVA [3, 11]: 9.0 | herbicidal effect rating, MOOVA [3, 12]: 9.0 | herbicidal effect rating, MOOVA [3, 13]: 9.0 | herbicidal effect rating, MOOVA [3, 14]: 9.0 | herbicidal effect rating, SAGPY [4, 11]: 6.0 | herbicidal effect rating, SAGPY [4, 12]: 8.0 | herbicidal effect rating, SAGPY [4, 13]: 8.0 | herbicidal effect rating, SAGPY [4, 14]: 9.0 | herbicidal effect rating, ECHORC [5, 11]: 4.0 | herbicidal effect rating, ECHORC [5, 12]: 9.0 | herbicidal effect rating, ECHORC [5, 13]: 9.0 | herbicidal effect rating, ECHORC [5, 14]: 9.0 | herbicidal effect rating, ORYSAT (rice tolerance) [6, 15]: 7.0 | herbicidal effect rating, ORYSAT (rice tolerance) [6, 16]: 8.0 | herbicidal effect rating, ORYSAT (rice tolerance) [6, 17]: 9.0 | herbicidal effect rating, ORYSAT (rice tolerance) [6, 18]: 9.0

Cc1noc2cc(F)c(-n3c(=O)cc(C(F)(F)F)n(C)c3=O)cc12 [Example 23, 3-(6-Fluoro-3-methyl-1,2-benzisoxazol-5-yl)-1-methyl-6-(trifluoromethyl)-2,4(1H,3H)-pyrimidinedione]
herbicidal effect rating, CYPSE [1, 19]: 4.0 | herbicidal effect rating, CYPSE [1, 20]: 7.0 | herbicidal effect rating, CYPSE [1, 21]: 8.0 | herbicidal effect rating, CYPSE [1, 22]: 9.0 | herbicidal effect rating, CYPIR [2, 19]: 7.0 | herbicidal effect rating, CYPIR [2, 20]: 9.0 | herbicidal effect rating, CYPIR [2, 21]: 9.0 | herbicidal effect rating, CYPIR [2, 22]: 9.0 | herbicidal effect rating, MOOVA [3, 19]: 9.0 | herbicidal effect rating, MOOVA [3, 20]: 9.0 | herbicidal effect rating, MOOVA [3, 21]: 9.0 | herbicidal effect rating, MOOVA [3, 22]: 9.0 | herbicidal effect rating, SAGPY [4, 19]: 4.0 | herbicidal effect rating, SAGPY [4, 20]: 6.0 | herbicidal effect rating, SAGPY [4, 21]: 9.0 | herbicidal effect rating, SAGPY [4, 22]: 9.0 | herbicidal effect rating, ECHORC [5, 19]: 4.5 | herbicidal effect rating, ECHORC [5, 20]: 7.0 | herbicidal effect rating, ECHORC [5, 21]: 8.5 | herbicidal effect rating, ECHORC [5, 22]: 9.0 | herbicidal effect rating, ORYSAT (rice tolerance) [6, 15]: 5.5 | herbicidal effect rating, ORYSAT (rice tolerance) [6, 16]: 6.5 | herbicidal effect rating, ORYSAT (rice tolerance) [6, 17]: 8.0 | herbicidal effect rating, ORYSAT (rice tolerance) [6, 18]: 8.5

COC(=O)c1nsc2cc(F)c(-n3c(=O)cc(C(F)(F)F)n(C)c3=O)cc12 [Example 513, 1,2-Benzisothiazole-3-carboxylic acid, 5-[3,6-dihydro-3-methyl-2,6-dioxo-4-(trifluoromethyl)-1(2H)-pyrimidinyl]-6-fluoro-, methyl ester]
CYPSE herbicidal rating [1, 23]: 9.0 | CYPSE herbicidal rating [1, 24]: 9.0 | CYPSE herbicidal rating [1, 21]: 9.0 | CYPSE herbicidal rating [1, 22]: 9.0 | CYPIR herbicidal rating [2, 23]: 4.0 | CYPIR herbicidal rating [2, 24]: 4.0 | CYPIR herbicidal rating [2, 21]: 6.0 | CYPIR herbicidal rating [2, 22]: 9.0 | MOOVA herbicidal rating [3, 23]: 9.0 | MOOVA herbicidal rating [3, 24]: 9.0 | MOOVA herbicidal rating [3, 21]: 9.0 | MOOVA herbicidal rating [3, 22]: 9.0 | SAGPY herbicidal rating [4, 23]: 9.0 | SAGPY herbicidal rating [4, 24]: 9.0 | SAGPY herbicidal rating [4, 21]: 9.0 | SAGPY herbicidal rating [4, 22]: 9.0 | ECHORC herbicidal rating [5, 23]: 0.0 | ECHORC herbicidal rating [5, 24]: 5.0 | ECHORC herbicidal rating [5, 21]: 7.0 | ECHORC herbicidal rating [5, 22]: 8.0 | ORYSAT herbicidal rating (rice tolerance) ([6]; 0.0320 kg/ha, rated three to four weeks after treatment): 9.0 | ORYSAT herbicidal rating (rice tolerance) ([6]; 0.0620 kg/ha, rated three to four weeks after treatment): 7.0 | ORYSAT herbicidal rating (rice tolerance) [6, 17]: 9.0 | ORYSAT herbicidal rating (rice tolerance) [6, 18]: 9.0

Cc1ccc(OCC(=O)OCCC2OCC(C)(C)CO2)c(-c2nsc3ccc(-n4c(=O)cc(C(F)(F)F)n(C)c4=O)cc23)c1 [Example 533, Acetic acid, {{2-{5-[3,6-dihydro-3-methyl-2,6-dioxo-4-(trifluoromethyl)-1(2H)-pyrimidinyl]-1,2-benzisothiazol-3-yl}-p-tolyl}oxy}-, 2-(5,5-dimethyl-m-dioxan-2-yl)ethyl ester]
herbicidal effect rating, CYPSE [1, 25]: 0.0 | herbicidal effect rating, CYPSE [1, 26]: 0.0 | herbicidal effect rating, CYPSE [1, 27]: 3.0 | herbicidal effect rating, CYPSE [1, 28]: 9.0 | herbicidal effect rating, CYPIR [2, 25]: 2.0 | herbicidal effect rating, CYPIR [2, 26]: 3.0 | herbicidal effect rating, CYPIR [2, 27]: 4.0 | herbicidal effect rating, CYPIR [2, 28]: 9.0 | herbicidal effect rating, MOOVA [3, 25]: 9.0 | herbicidal effect rating, MOOVA [3, 26]: 9.0 | herbicidal effect rating, MOOVA [3, 27]: 9.0 | herbicidal effect rating, MOOVA [3, 28]: 9.0 | herbicidal effect rating, SAGPY [4, 25]: 0.0 | herbicidal effect rating, SAGPY [4, 26]: 0.0 | herbicidal effect rating, SAGPY [4, 27]: 0.0 | herbicidal effect rating, SAGPY [4, 28]: 4.0 | herbicidal effect rating, ECHORC [5, 25]: 7.5 | herbicidal effect rating, ECHORC [5, 26]: 9.0 | herbicidal effect rating, ECHORC [5, 27]: 9.0 | herbicidal effect rating, ECHORC [5, 28]: 9.0 | herbicidal effect rating ORYSAT ([6]; Rate 0.0320 kg/ha, rated 3-4 weeks after treatment): 3.0 | herbicidal effect rating ORYSAT ([6]; Rate 0.0620 kg/ha, rated 3-4 weeks after treatment): 4.5 | herbicidal effect rating ORYSAT ([6]; Rate 0.1250 kg/ha, rated 3-4 weeks after treatment): 5.0 | herbicidal effect rating ORYSAT ([6]; Rate 0.2500 kg/ha, rated 3-4 weeks after treatment): 8.0
